In patent US5272175A, “Substituted tyrosyl diamide compounds” (priority 1992, dated 1993):
Structures can show the parent of a compound that is named as a salt.

Assays:
[1] = molecular target: μ opioid receptors (Rattus norvegicus, UniProt P33535); test: Opiate Binding Assay, displacement of 3[H]-DAMPGO from μ receptors
[2] = molecular target: δ opioid receptors (Rattus norvegicus, UniProt P33533); test: Opiate Binding Assay, displacement of 3[H]-DSLET from δ receptors; conditions: for Mean IC50 μ/δ Ratio: ratio of mean IC50 values for μ and δ, above 1.0 = more δ specific
Chain of δ opioid receptors (P33533 whole entry): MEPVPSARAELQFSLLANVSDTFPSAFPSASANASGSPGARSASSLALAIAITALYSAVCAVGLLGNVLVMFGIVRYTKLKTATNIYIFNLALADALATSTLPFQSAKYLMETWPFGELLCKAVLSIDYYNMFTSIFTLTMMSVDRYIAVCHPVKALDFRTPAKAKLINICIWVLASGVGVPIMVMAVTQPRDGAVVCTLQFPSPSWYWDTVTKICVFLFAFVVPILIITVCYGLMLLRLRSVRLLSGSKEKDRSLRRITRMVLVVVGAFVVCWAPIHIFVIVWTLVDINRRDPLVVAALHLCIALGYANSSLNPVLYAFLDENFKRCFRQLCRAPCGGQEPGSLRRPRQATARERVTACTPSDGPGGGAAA

Chain of μ opioid receptors (P33535 whole entry): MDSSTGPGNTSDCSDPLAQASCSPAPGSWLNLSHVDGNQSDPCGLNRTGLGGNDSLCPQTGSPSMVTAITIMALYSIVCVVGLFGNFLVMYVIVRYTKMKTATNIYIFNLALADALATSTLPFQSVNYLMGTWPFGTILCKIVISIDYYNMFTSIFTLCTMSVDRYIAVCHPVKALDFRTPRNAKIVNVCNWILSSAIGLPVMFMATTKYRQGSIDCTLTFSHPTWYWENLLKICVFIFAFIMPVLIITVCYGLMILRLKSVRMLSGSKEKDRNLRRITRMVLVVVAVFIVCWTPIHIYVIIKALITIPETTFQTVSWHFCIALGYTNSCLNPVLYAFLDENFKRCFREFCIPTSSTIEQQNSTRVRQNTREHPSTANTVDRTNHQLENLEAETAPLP

Compound	IC50 [1] [nM]	IC50 [2] [nM]	Mean IC50 μ/δ Ratio [2]
CC(=O)N[C@@H](Cc1ccccc1)C(=O)NC(C)(C)CNC(=O)[C@@H](N)Cc1c(C)cc(O)cc1C [Example 39, αS-(Acetylamino)-N-[2-[[2S-amino-3-(4-hydroxy-2,6-dimethylphenyl)-1-oxopropyl]amino]-1,1-dimethylethyl]-benzenepropanamide, monohydrochloride]	4.7	7.8	0.6
Cc1cc(O)cc(C)c1C[C@H](N)C(=O)NC(C)(C)CNC(=O)[C@H](Cc1ccccc1)NC(=O)NCc1ccccc1 [Example 33, αS-amino-N-[1,1-dimethyl-2-[[1-oxo-3-phenyl-2S-[[[(phenylmethyl)amino]carbonyl]amino]propyl]-amino]ethyl]-4-hydroxy-2,6-dimethylbenzeneprooanamide, hydrochloride]	< 10	~2	
CC(=O)N[C@@H](Cc1ccc(F)cc1)C(=O)NCC(C)(C)NC(=O)[C@@H](N)Cc1c(C)cc(O)cc1C [Example 6, αS-(Acetylamino)-N-2-[2S-amino-3-(4-hydroxy-2,6-dimethylphenyl) -1-oxopropyl]amino]-2-methyloropyl]-4-fluorobenzenepropanamide, monohydrochloride]	1.1	1.8	0.6
CC(=O)N[C@@H](Cc1c(C)cccc1C)C(=O)NCCNC(=O)[C@@H](N)Cc1ccc(O)cc1 [Example 51, αS-(Acetylamino)-N-[2-[[2S-amino-3-(4-hydroxyphenyl)-1-oxopropyl]amino]ethyl]-2,6-dimethylbenzenepropanamide. hydrochloride]		> 50	
Cc1cc(O)cc(C)c1C[C@H](N)C(=O)NC(C)(C)CNC(=O)[C@@H](N)Cc1ccccc1 [Example 12, αS-amino-N-[2-[2S-amino-3-(4-hydroxy-2,6-dimethylphenyl) -1-oxopropyl]amino]-2-methylpropyl]benzenepropanamide, dihydrochloride]	3.4	31.4	0.1
Cc1cc(O)cc(C)c1C[C@H](N)C(=O)NC(C)(C)CNC(=O)[C@H](Cc1ccccc1)NC(=O)C(F)(F)F [Example 14, αS-Amino-N-[1,1-dimethyl-2-[[1-oxo-3-phenyl-2S-[[trifluoroacetyl-amino]propyl]aminoethyl]-4-hydroxy-2,6-dimethylbenzenepropanamide, hydrochloride]	0.54	0.64	0.8
Cc1cc(O)cc(C)c1C[C@H](NC(=O)OC(C)(C)C)C(=O)NCCNC(=O)[C@@H](N)Cc1ccccc1 [Example 23, 1,1-dimethylethyl[1S-[[[2-[[(2S-amino-l-oxo-3-phenylpropyl)amino]ethyl]amino]carbonyl]-2-(4-hydroxy-2,6-dimethylohenyl)ethyl]carbamate, acetate (salt)]	1000	100	10
CC(=O)N[C@H](C(=O)NCC(C)(C)NC(=O)[C@@H](N)Cc1c(C)cc(O)cc1C)c1ccccc1 [Example 20, N-[2-[[2S-(acetylamino)-2-phenylacetyl]amino]-1,1-dimethylethyl]-αS-amino-4-hydroxy-2,6-dimethylbenzenepropanamide, hydrochloride]	1.2	19.3	0.06
Cc1cc(O)cc(C)c1C[C@H](NC(=O)OC(C)(C)C)C(=O)NC(C)(C)CNC(=O)[C@@H](N)Cc1ccccc1 [Example 11, acetic acid salt]	1000	100	10
CC(=O)N[C@@H](Cc1ccccc1)C(=O)Nc1cccc(NC(=O)[C@@H](N)Cc2c(C)cc(O)cc2C)c1 [Example 57, αS-(Acetylamino)-N-[3[[[2S-amino-3-[4-hydroxy-2,6-dimethylphenyl]-1-oxopropylamino]phenyl]benzenepropanamide, hydrochloride]		100	
